From paper PMC7466040, “Sevanol and Its Analogues: Chemical Synthesis, Biological Effects and Molecular Docking” (Pharmaceuticals, 2020)

Columns and labels:
[1] = tested on: human ASIC3 channels; conditions: natural sevanol; read-out: IC50, inhibition of human ASIC3 channels; cited from earlier work
[2] = tested on: ICR male mice; test: Abdominal constriction test of visceral pain (acetic acid-induced writhing); format: in vivo
Method: Specific pathogen-free outbred ICR male mice (6 to 8 weeks old, weighing 29 to 33 g) were obtained from the Animal Breeding Facility of the Branch of the Shemyakin-Ovchinnikov Institute of Bioorganic Chemistry of the Russian Academy of Sciences (Pushchino). The animals were acclimatized for 2 weeks before the experimental procedures, and were kept in two-corridor barrier rooms under a controlled environment: a temperature of 20 to 24 °C, a relative humidity of 30% to 60%, and a 12 h light cycle. The animals were housed in Type 3 standard polycarbonate cages (820 cm2) on bedding (LIGNOCEL BK 8/15, JRS, Germany), with ad libitum access to feed (SSNIFF V1534-300, Spezialdiaeten, GmbH) and filtered tap water. The mouse cages were also supplied with material for environmental enrichment, i.e., Mouse House (Techniplast, Italy). Sevanol or the vehicle was administered intravenously, intranasally and orally (30 min before testing).
The mice were divided into separate groups, and sevanol or saline was administrated (30 min before testing) as described above. Acetic acid in saline (0.6%, 10 mL/kg) was injected intraperitoneally. The mice were moved into transparent glass cylinders, and the number of writhes was registered for 15 min.
Figure 5 The analgesic and anti-inflammatory effects of sevanol following intravenous, intranasal and per os administration. The effect of sevanol on the acetic acid induced writhing (A–C) and on the mice withdrawal latency on a hot plate in the thermal hyperalgesia test after CFA injection (D–F) upon intravenous (A,D), intranasal (B,E) and oral (C,F) administration. […] The results are presented as the mean ± SD (n = 6–10). The p-values of the sevanol groups vs. the saline group are based on an analysis of variance and on Tukey’s test; * p < 0.05, ** p < 0.005, *** p < 0.001.

[3] = tested on: mice; parameters: method as in PMID 30545037; conditions: parenteral, 0.01–10 mg/kg; cited from earlier work

Structure (SMILES): O=C(O)CC(C(=O)O)C(OC(=O)C1=Cc2cc(O)c(O)cc2C(c2ccc(O)c(O)c2)C1C(=O)OC(C(=O)O)C(CC(=O)O)C(=O)O)C(=O)O (stereo not drawn) [sevanol]
- IC50 [1]: 300 µM
- reduction of the number of writhes, i.n. ([2]; intranasal, 1 mg/kg): more than 50%
- dose producing statistically significant reduction of writhes, i.n. ([2]; intranasal, 30 min before acetic acid): higher than 0.1 mg/kg
- reduction of the number of writhes, i.v. ([2]; intravenous, 1 mg/kg): more than 50%
- dose producing statistically significant reduction of writhes, i.v. ([2]; intravenous, 30 min before acetic acid): higher than 0.1 mg/kg
- reduction of the number of writhes, p.o. ([2]; oral, 1 mg/kg): more than 50%
- dose from which effective in reducing writhes, p.o. ([2]; oral, 30 min before acetic acid): ≥ 0.01 mg/kg
- enhancement of analgesic and anti-inflammatory effect by oral administration versus other routes ([2]; p.o. vs i.v./i.n., both tests): 10 fold
- effect on acetic acid-induced writhing [3]: reduced the number of writhes
